The values below come from ChEMBL document CHEMBL3507680, “University of Dundee, Gates Library screen for HepG2 cell viability”.

A short description of this data set: Human HepG2 cell viability assay in 384 well format. Type of data set: toxicity, cell-based. The arrangement: dose 125 nL, time 70.5 hour; concentration not given beside the values. The conditions noted are these: HepG2 cells, read-out: Inhibition.
On to `CN(CCc1cccs1)CCc1nccs1`, for which the cytotoxicity at 70.5 h was 0.685%. As for `COc1cnc(N2CCCN(Cc3ccc(F)cc3)CC2)nc1`, the cytotoxicity at 70.5 h was 4.55%. Under `CC1=NN(CC(=O)N2CC[C@@H]3[C@@H](CCC(=O)N3CC(C)C)C2)CC1` stands -1.09%; under `CCOC(=O)c1c(NC(=O)CN2CCN(C(C)=O)CC2)sc2c1CCC2`, -0.965%.

In the case of `O=C(O)CNc1cc(-c2cc(C(=O)NC3CC3)ccn2)c2cc[nH]c2n1`, the cytotoxicity at 70.5 h is -0.0958%. Under `CCc1ccc(C(=O)NCCCC2(C3OCCO3)CCOCC2)cc1` stands 11.6%. On to `CC(C)COCc1cncc2c1CCN(Cc1cnn(C)c1)C2`, for which the cytotoxicity at 70.5 h is -13.8%. As for `CC1CCN(c2ccc(=O)n(CC(=O)NCCc3ccccc3)n2)CC1`, the cytotoxicity at 70.5 h turned out to be 5.19%.

Turning to `Cc1nc(NC(=O)N2CCCC(N(C)C)C2)nn1C` (stereo not drawn), the cytotoxicity at 70.5 h turned out to be 31.8%. Under `COc1cc(C)cc(-c2nc3c([nH]2)CCNC3)c1OC` stands 9.79%.

Regarding `COc1ccc(CN2CCCC3(CC2)CNC(=O)O3)cc1OC` (stereo not drawn), the cytotoxicity at 70.5 h was 12.1%. With `COCCN1CCn2c(nc3cc(C(=O)NC(C)C)ccc32)C1` the figure was -6.96%; with `C[C@H]1C(=O)NC[C@H]2CN(CCc3ccccc3)C[C@H]21`, -9.77%. With `COc1cc(NCc2c(C)noc2C)c(OC)cc1Cl` the figure was 10.4%. As to `O=C(NCCNC(=O)c1ccc(Br)cc1)c1ccc(O)cc1`, the cytotoxicity at 70.5 h is -11%.

As for `Cc1cc(C(F)(F)F)nn1CCCNC(=O)C1CCC1`, the cytotoxicity at 70.5 h was -4.63%. With `CCc1cccc(OCC(=O)NC(C)c2nnc3n2CCC3)c1` (stereo not drawn) the figure was -3.83%. Regarding `O=C(c1ccoc1)N1C[C@@H]2CN(c3ncccn3)C[C@@H]2C1`, the cytotoxicity at 70.5 h was -4.89%. With `Cc1csc(CN2CCC[C@]3(C[C@@H](Oc4ccccn4)CO3)C2)n1` the figure was 1.82%. Consider `O=C(C1CCC1)N1CC[C@@H]2CN(Cc3cccnc3)S(=O)(=O)[C@@H]2CC1`, for which the cytotoxicity at 70.5 h is -4.67%. Under `CC(NC(=O)NCc1cc(Br)cs1)c1ccccn1` (stereo not drawn) stands -3.66%. With `N#Cc1cccc(CN2C[C@H](OCC3CCOCC3)[C@H]3COC[C@H]32)c1` the figure was -5.67%; with `CN1CCN(C(=O)c2ccc(=O)n(C)c2)c2ccccc21`, -1.74%. With `Cc1ccccc1OC1CCN(CC(=O)Nc2cnn(C)c2C)CC1` the figure was -2.68%; with `O=C(NCCNc1ccc(Br)cn1)c1ccc(O)cc1`, -6.46%; with `Cc1oc(C(=O)O)cc1S(=O)(=O)Nc1ccccc1F`, -11.3%. Take `Cc1cnc(N2CCN(C)c3ncccc3C2)nc1`: the cytotoxicity at 70.5 h came to 4.51%. With `Cn1cc(NC(=O)N2CCC(c3ccccc3)CC2)ccc1=O` the figure was -3.71%; with `Cc1cc(NCC(=O)N(C)C)c(C(N)=O)cc1F`, -0.553%.

As to `CN(C)C(=O)c1cccc(NC(=O)N(CCO)Cc2ccsc2)c1`, the cytotoxicity at 70.5 h is -4.45%.

In the case of `O=C1CCN(C(=O)c2ncoc2-c2ccco2)c2ncccc2N1`, the cytotoxicity at 70.5 h is -9.5%. For the molecule `CC(NCc1c(C(C)C)nn(C)c1N(C)C)C(=O)NC1CCCC1` (stereo not drawn), the cytotoxicity at 70.5 h was -6.36%. Under `Cc1nc(C2CCCN(C(=O)c3ccc(N4CCCC4)nc3)C2)no1` (stereo not drawn) stands 1.03%; under `CN(C)CCn1ccnc1C1CCN(c2cc(N)nc(N)n2)CC1`, -6.61%. Under `COc1cccc(CC2CN(C(=O)c3ccnn3C)CCO2)c1` (stereo not drawn) stands -4.96%; under `Oc1nc(N2CCCC2)nc2c1CCN(Cc1ccsc1)CC2`, -8.09%. With `O=C(N1CCC(Nc2cccnn2)CC1)C1(c2ccc(F)cc2)CC1` the figure was -6.39%. On to `CN1CCCN(C(=O)NCCOc2ccc3c(c2)OCO3)CC1`, for which the cytotoxicity at 70.5 h was -2.86%. Under `Cc1nccn1C1CCCN(C(=O)c2cnn(C)c2C2CC2)C1` (stereo not drawn) stands -0.648%. On to `CC(Cn1ccnc1)NC(=O)NCc1cccnc1OC1CCCC1` (stereo not drawn), for which the cytotoxicity at 70.5 h was -8.81%. With `CC(CNC(=O)NCc1ccco1)N1CCc2sccc2C1` (stereo not drawn) the figure was 36.1%; with `Cc1ccc(C(F)(F)F)cc1NC(=O)C1CCCN1` (stereo not drawn), -8.7%; with `CC(C)OCCCNC(=O)C1CC(=O)N(c2n[nH]c3cccc(F)c23)C1` (stereo not drawn), -23.7%. Regarding `CCCc1ncc(CNC2(c3ccc(Cl)cc3)CC2)cn1`, the cytotoxicity at 70.5 h was -4.1%.

As for `Cc1cc(NC(=O)NCCc2cccnc2)n(C)n1`, the cytotoxicity at 70.5 h is -3.88%.

Take `Cc1cccc(Nc2cc(C3CCCN(CC(N)=O)C3)ccn2)n1` (stereo not drawn): the cytotoxicity at 70.5 h came to 22.5%. Under `CC(c1nc(C2CC2)no1)N1CCN(Cc2ccsc2)CC1` (stereo not drawn) stands -12.3%; under `CN(c1nc(CSc2nnc(Cn3cncn3)o2)cs1)C1CC1`, 0.758%; under `Cc1nc(CN2CCCC23CCN(c2nc4ccccc4s2)CC3)co1`, -12.9%. For `O=C(NC[C@H]1OC[C@@H](NC2CCC(F)(F)CC2)[C@@H]1O)c1cccs1`, the cytotoxicity at 70.5 h is -5.94%. Turning to `CCc1nnc(CN2CCCC(c3cc(C(F)(F)F)[nH]n3)C2)o1` (stereo not drawn), the cytotoxicity at 70.5 h is 0.217%.

On to `Cc1nc(C(C)C)sc1C(=O)N(C)Cc1cnn(C)c1`, for which the cytotoxicity at 70.5 h came out at 14.2%.

Take `Cc1cccc(CN2C[C@H]3CC[C@@H]2CN(Cc2[nH]cnc2C)C3)n1`: the cytotoxicity at 70.5 h is -5.25%. For the molecule `COc1nccnc1N1CCC2(CC1)[C@H](O)C[C@@H]2OCCN(C)C`, the cytotoxicity at 70.5 h is -7.06%. Under `Cc1nc(CNC(=O)NC2CCN(c3ncccc3Cl)C2)oc1C` (stereo not drawn) stands 14.8%; under `CS(=O)(=O)NCc1ncn2c1CN(Cc1cccs1)CCC2`, -7.97%. Under `O=C(C1CC1)N1CCCN(c2ncnc3c2CCNCC3)CC1` stands -6.41%; under `CCOc1cc(CNC(=O)CNC(=O)CC2CCCCC2)ccn1`, -6.29%; under `Cc1ccccc1N1CCN(C(=O)CC(C)C)CC1`, 0.0324%. `CN(Cc1ccc(O)cc1)C(=O)NCc1nnc2n1CCCCC2`: the cytotoxicity at 70.5 h was -2.24%. Under `Cc1cnc(C(=O)NCC(c2ccc(C)o2)N2CCOCC2)cn1` (stereo not drawn) stands 10.4%; under `O=C(C1CC(=O)N(c2n[nH]c3cc(Br)ccc23)C1)N1CCCC1` (stereo not drawn), -9.16%.

Regarding `Cc1cccc(S(=O)(=O)N2CSCC2C(=O)NCC2CC2)c1` (stereo not drawn), the cytotoxicity at 70.5 h is -2.32%. With `Cc1cnc(CN(Cc2ccccc2)CC(O)c2cccs2)cn1` (stereo not drawn) the figure was 7.82%; with `COc1ccc(CN(C(=O)C(C)SC)c2cnn(C)c2)c(OC)c1` (stereo not drawn), 1.09%; with `Cc1cc(S(=O)(=O)NCc2cccc(C(=O)N3CCCC3)c2)c(C)s1`, -0.781%. Under `C[S+]([O-])c1cccc(NC(=O)N[C@H](CCO)c2ccccc2)c1` (stereo partly drawn) stands -2.3%; under `CCc1cnc(N2CC[C@@H]3CN(C(=O)c4ccco4)CCO[C@@H]3C2)nc1`, -10.8%. In the case of `CN(C)C(=O)C1CN(Cc2ccsc2)CCN(S(C)(=O)=O)C1` (stereo not drawn), the cytotoxicity at 70.5 h was -6.36%. With `CCc1nccn1-c1cccc(C2CCCN(C3CCCCC3)C2)n1` (stereo not drawn) the figure was -0.595%.

Consider `CCN1CC[C@]2(CN(C(=O)[C@H]3CCCO3)C[C@H]2c2ccccc2)C1=O`, for which the cytotoxicity at 70.5 h was -1.85%. For `CC(=O)N1CCC(CCc2ccnc(NC(=O)c3ccccn3)c2)CC1`, the cytotoxicity at 70.5 h came to 12%. Under `CNc1snc(C)c1C(=O)N1CCC(Nc2ccc(C)nn2)CC1` stands -3.58%.

As to `CS(=O)(=O)NC[C@]12COC[C@H]1CN(C(=O)CC1CCCC1)C2`, the cytotoxicity at 70.5 h is -13.4%.

Consider `CCCc1nc(CN2CCCC2c2cnn(C)c2)cs1` (stereo not drawn), for which the cytotoxicity at 70.5 h was found to be 13%. As for `COCCN1CCC2(CC1)CC(NCc1cncn1C)c1ccccc12` (stereo not drawn), the cytotoxicity at 70.5 h turned out to be 1.8%.

`COc1ccc2c(c1)OCC(Cc1cc(C(=O)N3CCCC3)ccn1)C2` (stereo not drawn): the cytotoxicity at 70.5 h was -32.3%.

Consider `CC(CS(C)(=O)=O)N(C(=O)CCc1ccc(Cl)s1)C1CC1` (stereo not drawn), for which the cytotoxicity at 70.5 h is -3.37%.

Turning to `CC(C)N1CCC(Cc2cc(-c3cccc(C(=O)O)c3)ncn2)C1` (stereo not drawn), the cytotoxicity at 70.5 h was -15%.

For the molecule `O=C(NCc1csc(-c2cnccn2)n1)c1cnn2c1CCCC2`, the cytotoxicity at 70.5 h was -5.37%. With `CCCOc1cc(CNC(=O)Nc2cccnc2N2CCCC2)ccn1`, the cytotoxicity at 70.5 h is -24.2%. `COc1cc(N2C[C@H]3CCC[C@@H](CN4CCOCC4)[C@H]3C2)ncn1`: the cytotoxicity at 70.5 h is -8.48%. Turning to `CC(C(=O)Nc1cc(F)ccc1F)N1CCN(Cc2ncc[nH]2)CC1` (stereo not drawn), the cytotoxicity at 70.5 h is 42.5%. For `O=C(NC(c1ccc(Cl)cc1)c1cccnc1)C1CC1` (stereo not drawn), the cytotoxicity at 70.5 h is -7.72%. With `Cc1ccc(O)c(C(=O)N2CCCC2CC(=O)c2cnn(C)c2)c1` (stereo not drawn) the figure was -4.97%. Under `CCCN1CCc2[nH]cnc2C12CCN(C(=O)CCn1cccn1)CC2` stands -2.96%; under `CC(=O)Nc1ccc(C(=O)N2CCSCC2c2ccc(C)o2)cc1` (stereo not drawn), -4.02%; under `Cc1cccn2c(=O)cc(CN3CCCC3Cn3cncn3)nc12` (stereo not drawn), -5.2%. Under `CCCn1cnnc1CNC(=O)CC1C(=O)NCCN1CC(C)(C)C` (stereo not drawn) stands -12.5%; under `COc1ccc(F)c(CN2CCCC(O)(CNC3CCCCC3)C2=O)c1` (stereo not drawn), -2.81%; under `Cc1nccn1-c1ccc(=O)n(CCNC(=O)c2ccncc2)n1`, -7.2%.

On to `Cc1cc(C(=O)N2CCN[C@H](C)C2)c2ccc(F)cc2n1`, for which the cytotoxicity at 70.5 h came out at 15.7%. For `O=C(CN(Cc1cccs1)C1CCS(=O)(=O)C1)NCC1CCCCC1` (stereo not drawn), the cytotoxicity at 70.5 h is -1.81%. With `CCC(C)(CC(=O)OC)NCc1cc(C)on1` (stereo not drawn) the figure was -11%; with `CS(=O)(=O)N1CCN(C(=O)c2cnn3c2OCCC3)CC1`, -2.74%; with `Nc1cncc(C(=O)N2Cc3ccccc3OC3(CCOCC3)C2)c1`, 7.99%. Turning to `c1ccc(OCc2nnn3c2CN(c2ncccn2)CCC3)nc1`, the cytotoxicity at 70.5 h came to 6.14%. Turning to `COc1ccccc1CN(C)C(=O)c1cc(CN2CCC(O)CC2)on1`, the cytotoxicity at 70.5 h was -0.685%.
